Assay [1] has as its target T1, Coenzyme A biosynthesis bifunctional protein CoaBC (Mycobacterium tuberculosis (strain ATCC 25618 / H37Rv), UniProt P9WNZ1).
T1 sequence (P9WNZ1 whole entry): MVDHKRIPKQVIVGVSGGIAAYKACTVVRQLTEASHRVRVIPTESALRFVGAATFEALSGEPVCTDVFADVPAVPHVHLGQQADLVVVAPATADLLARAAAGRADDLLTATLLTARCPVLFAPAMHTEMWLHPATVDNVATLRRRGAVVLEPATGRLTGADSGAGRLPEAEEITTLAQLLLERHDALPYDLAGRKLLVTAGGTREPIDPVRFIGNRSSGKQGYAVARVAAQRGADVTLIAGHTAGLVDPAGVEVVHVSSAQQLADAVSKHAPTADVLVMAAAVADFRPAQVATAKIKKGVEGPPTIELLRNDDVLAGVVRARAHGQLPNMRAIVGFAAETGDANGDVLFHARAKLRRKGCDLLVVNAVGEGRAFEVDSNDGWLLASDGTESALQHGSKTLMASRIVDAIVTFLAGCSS
As to the kind of experiment: Biomol Green assay for MtCoaBC inhibitor, OD650 read. In kind it is functional.

Assay [2] in a line: microbe, parasite or virus in culture. The conditions noted are these: Mycobacterium tuberculosis, 72 h, read-out: pIC50 (converted).
A short description of assay [3]: microbe, parasite or virus in culture. Conditions: Mycobacterium tuberculosis, 96 h, read-out: pIC50 (converted).
A further assay has as its target T2, Histidine--tRNA ligase (Leishmania infantum, UniProt A4I591).
T2 sequence (A4I591 whole entry): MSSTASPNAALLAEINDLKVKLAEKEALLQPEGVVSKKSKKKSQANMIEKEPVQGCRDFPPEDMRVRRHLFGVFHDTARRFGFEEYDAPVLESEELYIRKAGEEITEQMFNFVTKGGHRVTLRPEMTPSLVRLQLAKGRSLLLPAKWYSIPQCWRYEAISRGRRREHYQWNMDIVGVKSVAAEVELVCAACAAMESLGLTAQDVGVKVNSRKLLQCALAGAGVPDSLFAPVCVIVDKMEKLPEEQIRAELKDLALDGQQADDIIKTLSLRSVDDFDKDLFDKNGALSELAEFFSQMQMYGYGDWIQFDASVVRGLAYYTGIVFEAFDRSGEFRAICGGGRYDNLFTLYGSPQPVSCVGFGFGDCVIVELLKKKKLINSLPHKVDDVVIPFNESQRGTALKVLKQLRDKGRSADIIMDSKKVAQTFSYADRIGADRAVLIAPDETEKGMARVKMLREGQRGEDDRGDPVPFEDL
The assay can be described thus: Leishmania infantum Histidine tRNA synthetase (LdHisRS). Format: functional.

Assay [4] in a line: In vitro enzyme assay to detect hydrolysis of chlorophenol red-beta-D-[…] directly proportional to the number of Toxoplasma stably expressing beta-galactosidase. Format: functional, organism-based, Toxoplasma gondii. The conditions noted are these: for IC50: Toxoplasma gondii.
The next assay deals with Plasmodium falciparum. The assay can be described thus: Calibr Malaria Delayed Death Assay SOP. Format: functional, organism-based. Conditions: for IC50: Plasmodium falciparum.
The target of a further assay is Tryptophan--tRNA ligase (Mycobacterium tuberculosis (strain ATCC 25618 / H37Rv), UniProt P9WFT3). The assay can be described thus: Biochemical assay for Mt-TrpRS. In kind it is functional.
Chain of Tryptophan--tRNA ligase (P9WFT3 whole entry): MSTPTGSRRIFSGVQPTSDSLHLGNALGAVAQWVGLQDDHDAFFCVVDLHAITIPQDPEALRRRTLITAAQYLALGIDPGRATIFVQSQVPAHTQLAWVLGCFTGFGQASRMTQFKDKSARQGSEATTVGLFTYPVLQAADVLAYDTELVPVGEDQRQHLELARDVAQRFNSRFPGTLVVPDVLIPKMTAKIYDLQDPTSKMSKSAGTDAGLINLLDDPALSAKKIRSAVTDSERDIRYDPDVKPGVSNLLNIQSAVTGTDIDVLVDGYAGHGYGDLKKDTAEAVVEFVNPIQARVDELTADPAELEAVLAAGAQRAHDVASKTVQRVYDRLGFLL
The next assay deals with ClpP1P2 (Mycobacterium tuberculosis (strain ATCC 25618 / H37Rv), UniProt P9WPC3+P9WPC5). As to the kind of experiment: in vitro assay to detect presence of AMC directly proportional to the activity of ClpP1P2. GHDDI collaboration. Format: functional.
Chain of ClpP1P2 (P9WPC5 whole entry): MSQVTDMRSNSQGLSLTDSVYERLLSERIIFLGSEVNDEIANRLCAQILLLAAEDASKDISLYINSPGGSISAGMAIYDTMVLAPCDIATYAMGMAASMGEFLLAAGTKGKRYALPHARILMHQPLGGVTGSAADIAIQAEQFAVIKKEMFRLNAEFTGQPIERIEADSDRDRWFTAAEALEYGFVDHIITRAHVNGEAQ
Chain of ClpP1P2 (P9WPC3 whole entry): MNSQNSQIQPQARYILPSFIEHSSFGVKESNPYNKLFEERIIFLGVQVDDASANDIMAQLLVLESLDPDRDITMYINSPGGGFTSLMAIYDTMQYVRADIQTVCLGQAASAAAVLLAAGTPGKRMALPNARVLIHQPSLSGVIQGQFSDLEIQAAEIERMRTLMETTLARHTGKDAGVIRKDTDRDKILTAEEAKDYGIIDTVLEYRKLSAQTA

Here are results for 58 compounds from ChEMBL document CHEMBL3988442, “University of Dundee, Small-Polar-MMV Screening Library” (2021).

“And” between values parts separate entries of the source, which are not always exact repeats. Identical values can stand only once. A value given as a limit tells only on which side of the number the result lay.

In the case of `CC(C)(C)CN1CCN2C(=O)N(C3CCCCC3)C[C@H]2C1`, the IC50 in assay [1] was more than 30.2 µM; in assay [2] it was more than 50.1 µM; in assay [3], more than 50.1 µM. For the compound `CS(=O)(=O)N1CCC2(CC1)CN(CCn1cccn1)C(=O)CO2`, the IC50 on Histidine--tRNA ligase is more than 100 µM; in assay [1], more than 50.1 µM. What is called pIC50 is −log10 of the IC50, conventionally taken in molar units. Low values mean a large IC50, high ones a small IC50. In the case of `CCn1c(NCc2ccccn2)nc2c(C)nn(C)c2c1=O`, the pIC50 in assay [4] is < 4.3 and 4.672. This compound also showed an IC50 in assay [1] of more than 30.2 µM. Regarding `Cc1nn(C)c(C)c1CN(C)C(=O)c1cc(NC(=O)C2CC2)n(C)n1`, the IC50 in assay [4] was more than 50.1 µM; in assay [1], more than 30.2 µM. On to `CCN(CC)CCNS(=O)(=O)c1cccc(CSC)c1`, for which the IC50 in assay [1] is more than 30.2 µM. Further, in the assay with Plasmodium falciparum, the pIC50 is listed as 6.161 and the IC50 was 0.551 µM. For `Cc1ccc(C(=O)Nc2c(C(=O)N(C)C)nn(C)c2C)cc1C`, the IC50 in assay [4] was more than 50.1 µM; in assay [1] it was more than 30.2 µM. In the case of `Cc1cc(N2CCC(O)CC2)nc(C2CCCN2C)n1` (stereo unspecified), the IC50 against Histidine--tRNA ligase is 31 µM and 38.1 µM; in assay [1], more than 30.2 µM.

On to `Cc1cc(CCC2CN(CC3(O)CCCCC3)CCO2)ncn1` (stereo unspecified), for which the IC50 was more than 30.2 µM in assay [1] and more than 195 µM on Tryptophan--tRNA ligase. The corresponding values for `Cc1c[nH]nc1C1CCN(C(=O)C2CCOCC2)C1` (stereo unspecified) are more than 30.2 µM and more than 195 µM. On to `O=S(=O)(CCCn1cncn1)Cc1ccc(F)cc1Cl`, for which the IC50 against Histidine--tRNA ligase was 10.5 µM and 17.6 µM; in assay [1], 4.13 µM and 4.68 µM. `COc1ccc(-n2cc(CNC(=O)c3ccc[nH]3)nn2)cc1`: the IC50 is 33.4 µM and 45.8 µM against Histidine--tRNA ligase; more than 30.2 µM in assay [1]. With `COc1ccc(-c2nc(CCNc3nnc(C)c(C)c3C#N)co2)cc1`, the IC50 against Histidine--tRNA ligase is 58.1 µM and 60.7 µM; in assay [1], more than 30.2 µM. As to `COc1c(Cl)cc(Cl)cc1CN1CCC(C(N)=O)C1` (stereo unspecified), the values for the IC50 in assay [1], in assay [2] and in assay [3] were more than 30.2 µM, more than 50.1 µM and more than 50.1 µM, respectively. Compound `Cn1cc(CNC2CCCOc3c2ccc2ccccc32)cn1` (stereo unspecified) had an IC50 in assay [1] of more than 30.2 µM. In the assay with Plasmodium falciparum, this compound had a pIC50 of 6.02 and an IC50 of 0.871 µM. As for `Cc1nc(-c2ccc(CC(=O)N3CCN(C(=O)C(C)C)CC3)cc2)cs1`, the IC50 against Histidine--tRNA ligase is 24.8 µM and 12.4 µM; in assay [1], more than 30.2 µM; at ClpP1P2 it was 8.96 µM. Turning to `Cc1ccc(NS(=O)(=O)c2cnn(-c3ccccc3)c2)c(C(=O)O)c1`, the IC50 on Histidine--tRNA ligase is 38.9 µM and 18.2 µM; in assay [1], 22.5 µM and 20.5 µM. `COc1cccc(CNc2cc(C)nc(-c3ccncc3)n2)c1OC`: the IC50 on Histidine--tRNA ligase was 91.8 µM and > 100 µM; in assay [1], more than 30.2 µM; in the assay on Plasmodium falciparum, 0.465 µM. Also, in the assay with Plasmodium falciparum, the pIC50 stood at 6.336. `N#Cc1ccsc1N1CCC(Sc2ccncc2)C1=O` (stereo unspecified): the IC50 on Histidine--tRNA ligase is 17.7 µM and 33 µM; in assay [1], more than 30.2 µM. Regarding `COc1ccsc1C(=O)Nc1cc(Br)c(=O)n(C)c1`, the IC50 against Histidine--tRNA ligase was 19.7 µM and 23.3 µM; in assay [1] it was more than 30.2 µM. Consider `c1csc(C2(NCc3csc(C4CC4)n3)CCCC2)n1`, for which the IC50 on Histidine--tRNA ligase was 57.3 µM and 56.6 µM; in assay [1], more than 30.2 µM.

Turning to `O=C(NCc1cccnc1N1CCc2ccccc2C1)c1cc(=O)[nH][nH]1`, the IC50 against Histidine--tRNA ligase was 44.8 µM and 45.1 µM; in assay [1] it was more than 30.2 µM. For `CCN(Cc1ccc2cccc(O)c2n1)CC1CCCO1` (stereo unspecified), the IC50 at Histidine--tRNA ligase was 18.6 µM and 12.3 µM; in assay [1], more than 30.2 µM.

Turning to `COc1ccc(-n2c(CCC(=O)O)nc3ccccc32)cc1CO`, the IC50 is 68.6 µM and 44 µM on Histidine--tRNA ligase; more than 50.1 µM in assay [1]. On to `Cc1ccc(-c2cc(-c3nc(CN4CCN(C)CC4)no3)[nH]n2)s1`, for which the IC50 was more than 30.2 µM in assay [1] and more than 100 µM on ClpP1P2.

Take `CC(C)Cc1nc(CO)n(-c2ccc3c(c2)OCCO3)n1`: the IC50 in assay [1] is more than 30.2 µM; on ClpP1P2 it was more than 100 µM.

With `Cc1n[nH]c(C)c1-c1c(C#N)c(N)nc2c1CCc1[nH]ccc1-2`, the IC50 at Histidine--tRNA ligase is 16.8 µM and 18.1 µM; in assay [1], more than 30.2 µM; at ClpP1P2 it was more than 100 µM. As to `NCC1Cc2cc(Oc3cc(F)c(CN4CCCC4)c(F)c3)ccc2O1` (stereo unspecified), the IC50 is 20.4 µM in assay [4]; 30.2 µM and 36.9 µM at Histidine--tRNA ligase; more than 30.2 µM in assay [1]; 20.8 µM on ClpP1P2. `Cc1ccc(NC2CCN(C(=O)c3cnn(C(C)(C)C)c3)CC2)nn1` showed an IC50 in assay [1] of more than 50.1 µM. The same measure, in the same setting: as for `COc1cc(CNC2CCc3nc(C)nn3C2)cc2c1OCO2` (stereo unspecified), the figure is more than 30.2 µM. In assay [1], `CC(C(=O)Nc1ccc(N2CCCCC2)nc1)n1cncn1` (stereo unspecified) showed an IC50 of more than 30.2 µM. Same read-out and setting: the value for `Cc1nn(C)c(Cl)c1C1CCCN1C(=O)c1ccncc1` (stereo unspecified) was more than 30.2 µM; that for `CC(NCc1ccccc1Cl)c1ccc2[nH]c(=O)[nH]c2c1` (stereo unspecified) was more than 30.2 µM. Consider `Cc1nn(CCO)c(C)c1CNCc1cccnc1N(C)C`, for which the IC50 in assay [1] is more than 30.2 µM. Still for that read-out and setting: the value for `COc1ccccc1CNC(=O)N1CCN(Cc2cc(C)on2)CC1` was more than 30.2 µM. On the same count and under the same terms, as for `c1ccc(-c2nc(CN3CCCC3Cn3cncn3)co2)cc1` (stereo unspecified), the figure is more than 30.2 µM. In turn, `Fc1ccc(-c2nc(CN3CCCCC3Cn3cncn3)co2)cc1` (stereo unspecified) gave an IC50 in assay [1] of more than 30.2 µM. Regarding `Fc1cccc(-c2nc(CN3CCCC(Cn4cncn4)C3)co2)c1` (stereo unspecified), the IC50 in assay [1] is more than 30.2 µM. On the same count and under the same terms, the value for `Cc1nn(C)c(C)c1C1CCCN1C(=O)c1cnc2onc(C)c2c1` (stereo unspecified) was more than 30.2 µM; that for `Cc1nc(C2CCCN(C(=O)c3ccc(Cl)cn3)C2)no1` (stereo unspecified) was more than 30.2 µM.

For `c1ccc(Cn2cc(CNCC3CNc4ccnn4C3)cn2)cc1` (stereo unspecified), the IC50 in assay [1] was more than 30.2 µM; at Tryptophan--tRNA ligase it was more than 195 µM.

Turning to `CC(=O)Nc1nc(C(=O)N2CCCC2c2noc(C3CC3)n2)cs1` (stereo unspecified), the IC50 in assay [1] is more than 30.2 µM. Same read-out and setting: as for `O=C(c1cc2cc(F)ccc2[nH]1)N1CCCCC1Cn1cccn1` (stereo unspecified), the figure is more than 30.2 µM. As to `COc1ccc(C(O)CN2CC(n3nc(C)cc3C)C2)cc1` (stereo unspecified), in assay [1], the IC50 is more than 30.2 µM. In the assay on Plasmodium falciparum, this compound showed a pIC50 of 5.759 and an IC50 of 1.76 µM. In turn, `Cc1cc(NC(=O)CN2CCc3cnc(C(C)C)nc3C2)on1` showed an IC50 in assay [1] of more than 30.2 µM. In assay [1], `Cc1cc(CN2CCOC(CNc3cccnn3)C2)no1` (stereo unspecified) showed an IC50 of more than 30.2 µM. For the compound `Cc1ncc2c(n1)CCN(CCCc1nc3ccccc3o1)C2`, the IC50 in assay [1] was more than 50.1 µM. Same read-out and setting: as for `Cc1nn2cccnc2c1C(=O)N1CCCC(n2ccnc2C)C1` (stereo unspecified), the figure is more than 30.2 µM. Same read-out and setting: the value for `Cc1ccc(NC2CCN(C(=O)c3cccc4[nH]ncc34)CC2)nn1` was more than 30.2 µM; that for `Cc1nc(C2CCCN(C(=O)c3c(C)nn4cccnc34)C2)no1` (stereo unspecified) was more than 30.2 µM.

With `CC1CCN(CCNC(=O)c2ccn(-c3ccc(F)cc3)n2)CC1`, the IC50 in assay [1] is more than 30.2 µM. Same read-out and setting: the value for `CC(C)COCC(NC(=O)c1cnccn1)c1ccco1` (stereo unspecified) was more than 30.2 µM; that for `Cc1ccc(OCCC(=O)N2CCOCC2c2ncon2)cc1C` (stereo unspecified) was more than 30.2 µM; that for `Cc1cc(C2CCCN2CCC(=O)N2CCc3sccc3C2)no1` (stereo unspecified) was more than 30.2 µM. Turning to `Cc1ccc(C)n1-c1ccc(C(=O)NCCNc2ncccn2)cc1`, the IC50 is more than 100 µM at Histidine--tRNA ligase and more than 30.2 µM in assay [1]. `CS(=O)(=O)NC1CCN(C(=O)NCCc2ccccc2F)CC1`: the IC50 in assay [1] was more than 30.2 µM. Take `Cc1nccn1-c1cccc(C2CCCN2)n1` (stereo unspecified): the IC50 in assay [1] is more than 30.2 µM; at ClpP1P2 it was more than 100 µM. The corresponding values for `Cc1ccc(CN2C[C@@H]3CCN(Cc4ccncc4)C(=O)[C@H]3C2)s1` are more than 30.2 µM and 34.3 µM. Take `COc1c(-c2ccc(O)cc2)oc2cc(O)cc(O)c2c1=O` [ISOKAEMPFERIDE]: the IC50 in assay [1] was more than 30.2 µM.
